Among the data in PubChem BioAssay AID2745 (NMMLSC, 2010) are LAP4-GFP fluorescence (kMESF) values, retold here.

“And” between values parts separate entries of the source, which are not always exact repeats. Equal values may be shown once. The source made the active and inactive calls. No rule for the calls is given here.

The assay can be described thus: concentration series on yeast TOR reporter LAP4 – cell-based, MLPCN hits, flow cytometry, dose response (AID 2745).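 Also: yeast exposed to compound for three hours at 30 degrees.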 The note with it: S. cerevisiae LAP4-GFP reporter, flow cytometry fluorescence; at 33 µM (top of the series). (In general: Flow cytometry measures light scatter and fluorescence of single cells or particles in a stream.)
Take `COc1ccc(N2C(=O)C(Cl)=C(Nc3c(C)n(C)n(-c4ccccc4)c3=O)C2=O)cc1`: the LAP4-GFP fluorescence (kMESF) is 4.31 kMESF (inactive).
To `O=C(OCC(=O)N1CCN(C(=O)c2ccco2)CC1)c1cc(-c2ccc(F)cc2)nc2ccccc12` belongs 9.57 kMESF (inactive) and 4.75 kMESF (inactive).
As to `COc1ccc(N/N=C(\C#N)C(N)=O)cc1`, the LAP4-GFP fluorescence (kMESF) is 13.2 kMESF (inactive).
`O=C(CCS(=O)(=O)c1ccccc1)Nc1nc(-c2ccccn2)cs1`: the LAP4-GFP fluorescence (kMESF) was 3.91 kMESF (inactive).
Take `COc1ccc(N2C(=O)C(Cl)=C(NCc3ccccc3)C2=O)cc1`: the LAP4-GFP fluorescence (kMESF) is 6.61 kMESF (inactive).
Consider `C#CCOCCOCCOCCNc1nc(N2CCN(C(=O)CCCCCCCCCCNC(=O)[C@H](CCCCN)n3cc(CCO)nn3)CC2)nc(N2CCN(C(=O)CCCCCCCCCCNC(=O)[C@H](CCCCN)n3cc(C[C@@H](C)CC)nn3)CC2)n1`, for which the LAP4-GFP fluorescence (kMESF) is 5.86 kMESF (inactive).
For `Cc1c(C)c2ccc(Oc3ccc([N+](=O)[O-])cc3C(F)(F)F)c(C)c2oc1=O` the value was 3.47 kMESF (inactive); for `O=C1Nc2ccc(Br)cc2/C1=C/C(=O)c1ccc2c(c1)OCO2`, 10.4 kMESF (inactive); for `Cc1ccc(C(=O)O/N=C(\N)Cc2cccs2)c(Cl)c1`, 13.1 kMESF (inactive).
In the case of `CCC(=O)Oc1oc(-c2ccccc2)nc1C=Nc1ccc(C)cc1`, the LAP4-GFP fluorescence (kMESF) was 4.73 kMESF (inactive).
Turning to `Cc1cc(/C=C2/SC(=S)N(c3cccc(Cl)c3)C2=O)c(C)n1-c1cccnc1`, the LAP4-GFP fluorescence (kMESF) was 10.5 kMESF (inactive).
To `Cc1ccc(C2=NN(S(C)(=O)=O)C(c3ccc4c(c3)OCO4)C2)cc1` (stereo unspecified) belongs 4.78 kMESF (inactive); to `CC[C@]1(c2ccccc2C)ON(c2ccccc2C(F)(F)F)C1=O`, 3.33 kMESF (inactive).
For `CC(=O)[C@]1(O)Cc2c(O)c3c(c(O)c2[C@@H](O[C@H]2C[C@H](N)[C@H](O)[C@H](C)O2)C1)C(=O)c1ccccc1C3=O` the value was 9.67 kMESF (inactive); for `CC(C)Cn1c(=O)c(C(=O)Nc2ccncc2)c(O)c2ccccc21`, 2.36 kMESF (inactive); for `CCOC(=O)C(C(=O)OCC)C(C(=O)OCC)N1CCOCC1` (stereo unspecified), 6.39 kMESF (inactive).
With `O=C1c2ccccc2C(=O)N1OS(=O)(=O)c1ccccc1`, the LAP4-GFP fluorescence (kMESF) is 8.7 kMESF (inactive).
To `CCN(CC)c1ccc(/C=C2\C(=O)c3ccc(C(=O)O)cc3C2=O)cc1` belongs 392 kMESF (inactive); to `Nc1nc2ncc(CNc3ccc(C(=O)N[C@@H](CCC(=O)O)C(=O)O)cc3)nc2c(=O)[nH]1`, 4.01 kMESF (inactive); to `Cc1cccc(N2C(=O)C(Cl)=C(Nc3c(C)n(C)n(-c4ccccc4)c3=O)C2=O)c1C`, 6.11 kMESF (inactive).
To `CC(C)[C@]1(c2ccc(Cl)cc2)ON(c2ccccc2C(F)(F)F)C1=O` belongs 3.43 kMESF (inactive); to `COc1ccc(-c2cc3nc4n(c(=O)c3s2)CCC4)cc1`, 3.68 kMESF (inactive); to `COC(=O)CCS(=O)(=O)c1nc(-c2ccccc2)cc(C(F)(F)F)n1`, 20.1 kMESF (inactive).
For `COc1ccc(Cl)cc1C(Nc1cccnc1)c1ccc2cccnc2c1O` (stereo unspecified) the value was 19.3 kMESF (inactive).
For the compound `O=C1/C(=C\c2ccc(O)c(O)c2)SC(=S)N1Cc1ccccc1`, the LAP4-GFP fluorescence (kMESF) is -9.95 kMESF (inactive).
To `Cc1cc(=O)n2c3c(sc2n1)C(=O)N(Cc1ccccc1)C3=O` belongs 9.31 kMESF (inactive); to `N/C(Cc1ccc(Cl)cc1Cl)=N\OC(=O)c1ccccc1`, 9.94 kMESF (inactive); to `CC(Oc1ccc2ccccc2c1)C(=O)NNC(=S)NC(=O)c1ccco1` (stereo unspecified), 13.9 kMESF (inactive).
To `COc1ccc([C@@]2(C(C)C)ON(c3ccccc3C(F)(F)F)C2=O)cc1` belongs 4.38 kMESF (inactive).
For `CCOC(=O)C1=C(O)c2ccccc2C(=O)/C1=C\c1ccc(C)cc1` the value was -35.8 kMESF (inactive); for `Cc1ccc(NC(=O)CCc2ccccc2)cc1S(=O)(=O)N1CCOCC1`, 3.23 kMESF (inactive); for `Cc1ccccc1[C@]1(C)ON(c2ccccc2C(F)(F)F)C1=O`, 3.24 kMESF (inactive).
As for `Cc1nn2c(NCc3ccccn3)c3c(nc2c1-c1ccccc1)CCC3`, the LAP4-GFP fluorescence (kMESF) was 7.76 kMESF (inactive).
`CN1C(=O)/C(=N\OC(=O)c2cccc3ccccc23)c2ccccc21`: the LAP4-GFP fluorescence (kMESF) was 7.11 kMESF (inactive).
For `O=C1c2ccccc2C(=O)N1OS(=O)(=O)c1ccc(F)cc1` the value was 9.97 kMESF (inactive).
As for `CC(C)C(=O)NC(c1cccs1)c1cc([N+](=O)[O-])c2cccnc2c1O` (stereo unspecified), the LAP4-GFP fluorescence (kMESF) was 10.5 kMESF (inactive).
As to `N/C(=N\OC(=O)c1ccc(Cl)cc1Cl)c1ccccc1`, the LAP4-GFP fluorescence (kMESF) was 12.4 kMESF (inactive).
For `Oc1ccc(CNc2ccccc2)c2cccnc12` the value was 3.88 kMESF (inactive); for `O=C(Oc1cccc2cccnc12)c1ccc(Br)o1`, 3.74 kMESF (inactive); for `O=C(Nc1nc2ccc(F)cc2s1)c1ccccn1`, 8.11 kMESF (inactive).
Regarding `Cc1ccc(/C(N)=N/OC(=O)c2ccc(F)cc2)cc1`, the LAP4-GFP fluorescence (kMESF) was 5.21 kMESF (inactive).
Regarding `COc1ccc(C(=O)NC(=S)NNC(=O)c2cnccn2)cc1OC`, the LAP4-GFP fluorescence (kMESF) was 9.2 kMESF (inactive).
Consider `Cc1cc(=O)oc2cc(Oc3ccc([N+](=O)[O-])cc3C(F)(F)F)ccc12`, for which the LAP4-GFP fluorescence (kMESF) is 3.64 kMESF (inactive).
Consider `CCC(=O)Nc1ccc(NC(=O)c2cc3ccccc3o2)cc1`, for which the LAP4-GFP fluorescence (kMESF) was 3.31 kMESF (inactive).
To `COc1ccc(N2CCN(C(=O)c3ccccc3)CC2)c([N+](=O)[O-])c1` belongs 6.87 kMESF (inactive).
To `Cc1ccc(C(=O)Oc2oc(-c3ccccc3)nc2C=Nc2ccc(N(C)C)cc2)cc1` belongs 6.02 kMESF (inactive); to `N#Cc1c2ccc([N+](=O)[O-])cc2[n+]([O-])n1-c1ccccc1`, 4.85 kMESF (inactive); to `Cc1c(NC2=C(Cl)C(=O)N(c3ccccc3Cl)C2=O)c(=O)n(-c2ccccc2)n1C`, 3.78 kMESF (inactive).
To `Cc1ccc(C)c(/C=C/C(=O)c2ccccc(=O)c2O)c1` belongs -0.2 kMESF (inactive); to `Cc1c(Br)c(=O)oc2c(Br)c(O)c(O)cc12`, 2.43 kMESF (inactive).
Regarding `COc1ccc2c(c1)S/C(=C\C(=O)c1ccncc1)N2C`, the LAP4-GFP fluorescence (kMESF) was 4.85 kMESF (inactive).
To `N=C1/C(=C\c2coc3ccccc3c2=O)C(=O)N=C2SC(c3ccncc3)=NN12` belongs -3.74 kMESF (inactive); to `O=C(OCC(=O)N1CCN(C(=O)c2ccco2)CC1)c1cc(-c2ccccc2)nc2ccccc12`, 10.4 kMESF (inactive) and 6.1 kMESF (inactive); to `C=CCOc1ccccc1C(=O)/C=C1/C(=O)Nc2ccccc21`, 10.2 kMESF (inactive).
For `Cc1cc(C)c(S(=O)(=O)N2CCC(C(=O)NCc3ccc(Cl)cc3Cl)CC2)c(C)c1` the value was 4.35 kMESF (inactive); for `O=C(COc1ccccc1)N1CCN(c2ncnc3c2cnn3-c2ccccc2)CC1`, 3.38 kMESF (inactive).
Regarding `N#C/C(=C\c1ccccn1)c1nc2ccccc2s1`, the LAP4-GFP fluorescence (kMESF) is 15.1 kMESF (inactive).
Take `Cc1cc2ccccn2c1C(=O)c1ccc([N+](=O)[O-])o1`: the LAP4-GFP fluorescence (kMESF) is -3.89 kMESF (inactive).
To `COc1ccccc1C(=O)NNC(=S)NC(=O)c1cccs1` belongs 6.21 kMESF (inactive).
On to `O=C1C=CC(=O)N1c1ccc(OC(F)F)cc1`, for which the LAP4-GFP fluorescence (kMESF) was 4.2 kMESF (inactive).
`COC(=O)CCCC1=CC2=CC(=O)C(C)(OC(=O)CCc3ccccc3)C(=O)C2=CO1` (stereo unspecified): the LAP4-GFP fluorescence (kMESF) was 3.13 kMESF (inactive).
To `CCCc1nnc(NC(=O)c2c(O)c3cccc4c3n(c2=O)CCC4)s1` belongs 0.3 kMESF (inactive); to `O=C(Nc1ccc(NC(=O)c2cc3ccccc3o2)cc1)c1ccco1`, 3.31 kMESF (inactive); to `O=C1C=C(c2ccc(Cl)cc2)C(=O)N1Nc1ccccc1`, 5.81 kMESF (inactive).
`COc1cccc2cc(-c3nc4ccccc4o3)c(=O)oc12`: the LAP4-GFP fluorescence (kMESF) was 3.03 kMESF (inactive).
For `Cc1ccccc1C(=O)NNC(=S)NC(=O)c1ccc(Cl)cc1Cl` the value was 8.22 kMESF (inactive).
To `Oc1c(C(Nc2cccc(C(F)(F)F)c2)c2ccncc2)ccc2cccnc12` (stereo unspecified) belongs 11.8 kMESF (inactive).
To `Cc1ccc(/C=C2\C(=O)NC(=S)N(c3ccccc3F)C2=O)s1` belongs 5.57 kMESF (inactive); to `COc1ccccc1[C@@]1(C)ON(c2ccccc2C(F)(F)F)C1=O`, 7.08 kMESF (inactive).
`O=[N+]([O-])c1cnc(Sc2ccncn2)s1`: the LAP4-GFP fluorescence (kMESF) is 17.8 kMESF (inactive).
For `Oc1ccc2ccccc2c1/C=N/Nc1nnc(-c2ncc[nH]2)c2ccccc12` the value was -7.45 kMESF (inactive); for `CCCCC1OC23CCCCC2C(C#N)(C(=N)O3)C1(C#N)C#N` (stereo unspecified), 3.98 kMESF (inactive).
To `CN(C)/C=C/C(=O)c1ccc(-c2ccc(Cl)cc2Cl)o1` belongs 4.39 kMESF (inactive).
For the compound `NC(=O)COc1ccc(C(=O)/C=C2/C(=O)Nc3ccccc32)cc1`, the LAP4-GFP fluorescence (kMESF) is 6.78 kMESF (inactive).
Consider `CCc1ccc(C(=O)/C=C/c2ccc([N+](=O)[O-])o2)cc1`, for which the LAP4-GFP fluorescence (kMESF) is 10.5 kMESF (inactive).
To `COC(=O)c1cc(N2C(=O)C3C(C2=O)C2(C)C=CC3(C)O2)ccc1Cl` (stereo unspecified) belongs 8.52 kMESF (inactive).
